Test results as given in ChEMBL document CHEMBL1134829, “7-Alkyl- and 7-cycloalkyl-5-aryl-pyrrolo[2,3-d]pyrimidines--potent inhibitors of the tyrosine kinase c-Src” (Bioorg Med Chem Lett, 2001).

What was measured:
[1] = target: Epidermal growth factor receptor (Homo sapiens, UniProt P00533); experiment: Inhibition of Epidermal growth factor receptor (EGF-R) tyrosine kinase activity
[2] = target: T1, Proto-oncogene tyrosine-protein kinase Src (Gallus gallus, UniProt P00523); experiment: Inhibition of p60 c-Src tyrosine kinase activity
[3] = target: T1, Proto-oncogene tyrosine-protein kinase Src; experiment: Inhibition of p60 c-Src tyrosine kinase mediated phosphorylation of Fak in IC8.1 fibroblasts; type: functional
[4] = target: Tyrosine-protein kinase ABL (Homo sapiens, UniProt P00519+P42684)
Description: Inhibition of v-Abl tyrosine kinase activity

[5] = target: T1, Proto-oncogene tyrosine-protein kinase Src; experiment: Inhibition of p60 c-Src tyrosine kinase at 830 ng/mL

Epidermal growth factor receptor, sequence (P00533 whole entry): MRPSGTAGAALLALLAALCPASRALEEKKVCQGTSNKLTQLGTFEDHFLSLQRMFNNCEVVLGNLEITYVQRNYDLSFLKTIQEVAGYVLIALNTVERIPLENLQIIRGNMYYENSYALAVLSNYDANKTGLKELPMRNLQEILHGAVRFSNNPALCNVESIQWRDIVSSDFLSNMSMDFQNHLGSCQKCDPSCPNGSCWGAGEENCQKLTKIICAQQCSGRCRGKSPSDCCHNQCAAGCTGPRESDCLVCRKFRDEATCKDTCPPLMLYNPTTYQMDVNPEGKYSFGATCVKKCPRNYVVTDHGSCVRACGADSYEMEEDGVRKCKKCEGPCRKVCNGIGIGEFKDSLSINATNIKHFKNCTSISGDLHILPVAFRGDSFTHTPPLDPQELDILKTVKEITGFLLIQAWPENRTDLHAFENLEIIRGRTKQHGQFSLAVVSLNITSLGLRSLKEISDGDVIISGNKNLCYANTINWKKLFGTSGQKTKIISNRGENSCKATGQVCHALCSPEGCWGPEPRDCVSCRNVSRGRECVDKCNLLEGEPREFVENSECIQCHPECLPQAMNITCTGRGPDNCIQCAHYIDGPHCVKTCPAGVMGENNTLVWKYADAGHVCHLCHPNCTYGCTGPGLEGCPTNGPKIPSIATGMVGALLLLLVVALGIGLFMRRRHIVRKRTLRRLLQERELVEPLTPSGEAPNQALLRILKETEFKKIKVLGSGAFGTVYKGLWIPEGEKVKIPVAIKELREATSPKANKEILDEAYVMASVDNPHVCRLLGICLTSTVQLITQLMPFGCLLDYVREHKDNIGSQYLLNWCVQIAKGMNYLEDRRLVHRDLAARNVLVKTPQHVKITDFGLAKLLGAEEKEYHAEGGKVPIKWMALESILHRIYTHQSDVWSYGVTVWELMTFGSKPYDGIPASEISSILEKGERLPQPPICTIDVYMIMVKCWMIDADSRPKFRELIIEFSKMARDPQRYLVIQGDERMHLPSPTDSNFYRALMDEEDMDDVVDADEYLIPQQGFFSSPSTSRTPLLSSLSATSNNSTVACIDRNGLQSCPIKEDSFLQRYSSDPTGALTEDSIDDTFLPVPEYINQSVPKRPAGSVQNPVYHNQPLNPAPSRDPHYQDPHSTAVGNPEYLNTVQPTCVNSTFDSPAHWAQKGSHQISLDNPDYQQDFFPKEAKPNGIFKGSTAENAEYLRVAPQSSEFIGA

Structure (SMILES) | IC50 [1] [nM] | IC50 [2] [nM] | IC50 [3] [nM] | IC50 [4] [nM] | IC50 [5] [nM]
Nc1ncnc2c1c(-c1ccccc1)cn2C1CCC1 | 730 | 110 | 1000 | 90 | 
Nc1ncnc2c1c(-c1ccccc1)cn2C1CCC(O)C1 (stereo unspecified) | 790 | 50 | 200 | 40 | 
COc1ccc(CC(CO)n2cc(-c3cccc(OC)c3)c3c(N)ncnc32)cc1 (stereo unspecified) | 9700 | 1000 |  |  | 
COc1ccc(-c2cn(C3CCC3)c3ncnc(N)c23)cc1 |  | 200 | 3000 |  | 
COc1ccc(CC(CO)n2cc(-c3cccc(O)c3)c3c(N)ncnc32)cc1 (stereo unspecified) | 3400 | 42 | 400 | 340 | 
Nc1ncnc2c1c(-c1ccccc1)cn2C(CO)Cc1ccc(O)cc1 (stereo unspecified) | 13200 | 1900 |  | 2200 | 
COc1ccc(-c2cn(C3CCCC3)c3ncnc(N)c23)cc1 | 570 | 80 | 1200 | 260 | 
COc1ccc(CC(CO)n2cc(-c3ccccc3)c3c(N)ncnc32)cc1 (stereo unspecified) | 14400 | > 1000 | > 5000 | > 10000 | 
Nc1ncnc2c1c(-c1ccccc1)cn2C(CO)Cc1ccccc1 (stereo unspecified) | 440 | 600 |  | 10500 | 
Nc1ncnc2c1c(-c1ccccc1)cn2C1CCCC1 | 500 | 140 | 1800 | 140 | 
Nc1ncnc2c1c(-c1cccc(O)c1)cn2C1CCC1 | 300 | 4 | 100 | 5 | 
Nc1ncnc2c1c(-c1ccccc1)cn2C(CO)CCc1ccccc1 (stereo unspecified) |  | 4000 |  |  | 
Nc1ncnc2c1c(-c1ccccc1)cn2[C@@H](CO)c1ccccc1 |  | 480 | > 5000 |  | 
Nc1ncnc2c1c(-c1ccccc1)cn2[C@H](CO)c1ccccc1 |  |  |  |  | 4900

Now from value to compound:

IC50 [1] [nM] | IC50 [2] [nM] | IC50 [3] [nM] | IC50 [4] [nM] | IC50 [5] [nM] | Structure (SMILES)
600 | 10 | 1500 | 85 |  | Nc1ncnc2c1c(-c1ccc(O)cc1)cn2C1CCC1
2820 | 20 | 4000 | 390 |  | Nc1ncnc2c1c(-c1ccccc1)cn2C1CC(O)C1 (stereo unspecified)
460 | 2 | 170 | 170 |  | COc1cccc(-c2cn(C3CCCC3)c3ncnc(N)c23)c1
490 | 20 | 300 | 420 |  | COc1cccc(-c2cn(C3CC(CNCCO)C3)c3ncnc(N)c23)c1 (stereo unspecified)
80 | 1 | 200 |  |  | Nc1ncnc2c1c(-c1cccc(O)c1)cn2C1CCCC1
250 | 20 | 300 | 110 |  | Nc1ncnc2c1c(-c1ccc(O)cc1)cn2C1CCCC1
 | 30 | 2000 | 40 |  | COc1cccc(-c2cn(C3CC(CO)C3)c3ncnc(N)c23)c1 (stereo unspecified)
330 | 20 | 4000 | 230 |  | COc1cccc(-c2cn(C3CC(C(=O)NCCO)C3)c3ncnc(N)c23)c1 (stereo unspecified)
450 | 40 | 600 | 50 |  | COc1cccc(-c2cn(C3CCC3)c3ncnc(N)c23)c1
